Source: patent US10093660B2, “Sulfoximine substituted quinazolines for pharmaceutical compositions” (EVOTEC INTERNATIONAL GMBH, priority 2013, dated 2018)

target: MNK2a (Homo sapiens (Human), UniProt Q9HBH9); assay: MNK2a in vitro kinase assay (Assay 2), ADP-Glo; type: biochemical; conditions: not given
Description: B. MNK2a In Vitro Kinase Assay (Assay 2)

MNK2a, sequence (Q9HBH9 whole entry): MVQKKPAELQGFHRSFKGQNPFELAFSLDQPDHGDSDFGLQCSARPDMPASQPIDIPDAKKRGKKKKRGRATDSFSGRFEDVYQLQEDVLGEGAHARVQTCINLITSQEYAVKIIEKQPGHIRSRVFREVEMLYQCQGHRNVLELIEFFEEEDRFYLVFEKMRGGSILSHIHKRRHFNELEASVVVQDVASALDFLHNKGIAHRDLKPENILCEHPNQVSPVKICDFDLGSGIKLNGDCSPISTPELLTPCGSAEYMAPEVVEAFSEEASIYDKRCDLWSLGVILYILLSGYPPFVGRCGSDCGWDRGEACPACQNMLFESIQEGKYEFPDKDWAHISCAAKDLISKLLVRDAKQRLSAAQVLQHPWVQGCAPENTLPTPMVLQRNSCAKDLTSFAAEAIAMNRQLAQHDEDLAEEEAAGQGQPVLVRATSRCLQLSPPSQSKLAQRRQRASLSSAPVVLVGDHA

Structure (SMILES)	IC50
CO[C@@H]1COC[C@@H]1Oc1cc(F)ccc1Nc1ncnc2cc(N=S(C)(C)=O)cc(C)c12 (racemic) [Example 2.9]	4 nM

same assay, conditions: assay 2; read-out: MNK2 IC50

Structure (SMILES)	IC50
CS(=O)(=Nc1cc(F)c2c(Nc3ccc(F)cc3O[C@@H]3COC[C@@H]3O)ncnc2c1)c1ccccc1 (mixture of isomers) [Example 2.95]	54 nM
CS(C)(=O)=Nc1cc(C2CC2)c2c(Nc3ccc(F)cc3O[C@H]3COC[C@@H]3O)ncnc2c1 [Example 1.10]	21 nM
O=S1(=Nc2cc(F)c3c(Nc4ccc(F)cc4O[C@@H]4COC[C@@H]4O)ncnc3c2)CCC1 (racemic) [Example 2.87]	10 nM
CS(=O)(=Nc1cc(F)c2c(Nc3ccc(F)cc3O[C@H]3COC[C@@H]3O)ncnc2c1)C1CC1 (stereo partly shown) [Example 2.73]	20 nM
CS(=O)(=Nc1cc(F)c2c(Nc3ccc(F)cc3O[C@H]3COC[C@@H]3O)ncnc2c1)C1CCOCC1 (stereo partly shown) [Example 2.88]	32 nM
CC(C)S(C)(=O)=Nc1cc(F)c2c(Nc3ccc(F)cc3O[C@@H]3COC[C@@H]3O)ncnc2c1 (mixture of isomers) [Example 2.90]	70 nM
Cc1cc(N=S(C)(C)=O)cc2ncnc(Nc3ccc(F)cc3O[C@@H]3C[C@@H]4CC[C@H]3O4)c12 (racemic) [Example 2.98]	6 nM
CS(=O)(=Nc1cc(F)c2c(Nc3ccc(F)cc3O[C@H]3COC[C@@H]3O)ncnc2c1)c1ccncc1 (stereo partly shown) [Example 2.97]	71 nM
Cc1cc(N=S(C)(C)=O)cc2ncnc(Nc3ccc(F)cc3O[C@H]3C[C@@H]4CO[C@H]3C4)c12 (racemic) [Example 2.99]	3 nM
Cc1cc(N=S2(=O)CCCC2)cc2ncnc(Nc3ccc(F)cc3O[C@@H]3COC[C@H]3F)c12 (racemic) [Example 2.101]	6 nM
CS(C)(=O)=Nc1cc(Cl)c2c(Nc3ccc(F)cc3O[C@H]3COC[C@@H]3O)ncnc2c1 [Example 1.8]	2 nM
CS(=O)(=Nc1cc(F)c2c(Nc3ccc(F)cc3O[C@@H]3COC[C@@H]3O)ncnc2c1)C1CC1 (mixture of isomers) [Example 2.91]	106 nM
CO[C@H]1COC[C@H]1Oc1ncccc1Nc1ncnc2cc(N=S3(=O)CCCC3)cc(C)c12 (racemic) [Example 2.2]	6 nM
Cc1cc(N=S(C)(C)=O)cc2ncnc(Nc3ccc(F)cc3O[C@@H]3COC[C@H]3F)c12 (racemic) [Example 2.100]	25 nM
CS(=O)(=Nc1cc(F)c2c(Nc3ccc(F)cc3O[C@H]3COC[C@@H]3O)ncnc2c1)c1cccnc1 (stereo partly shown) [Example 2.69]	22 nM
Cc1cc(N=S(C)(C)=O)cc2ncnc(Nc3cccnc3O[C@H]3COC[C@H]3OCCF)c12 (racemic) [Example 2.26]	3 nM
O=S1(=Nc2cc(F)c3c(Nc4ccc(F)cc4O[C@@H]4COC[C@@H]4O)ncnc3c2)CCC(O)CC1 (mixture of isomers) [Example 2.94]	39 nM
Cc1cc(N=S2(=O)CCCC2)cc2ncnc(Nc3ccc(F)cc3O[C@H]3CN(C)C[C@@H]3O)c12 [Example 2.61]	12 nM
CS(=O)(=Nc1cc(F)c2c(Nc3ccc(F)cc3O[C@@H]3COC[C@@H]3O)ncnc2c1)c1cccnc1 (mixture of isomers) [Example 2.89]	51 nM
CC1CCS(=O)(=Nc2cc(F)c3c(Nc4ccc(F)cc4O[C@@H]4COC[C@@H]4O)ncnc3c2)C1 (mixture of isomers) [Example 2.96]	9 nM
CS(=O)(=Nc1cc(F)c2c(Nc3ccc(F)cc3O[C@H]3COC[C@@H]3O)ncnc2c1)c1ccccc1 (stereo partly shown) [Example 2.86]	13 nM

Now from value to molecule:

IC50	Structure (SMILES)
43 nM	COc1cc(N=S(C)(=O)c2ccncc2)cc2ncnc(Nc3ccc(F)cc3O[C@H]3COC[C@@H]3O)c12 (stereo partly shown) [Example 9.30]
13 nM	COc1cc(N=S(C)(=O)c2ccccc2)cc2ncnc(Nc3ccc(F)cc3O[C@H]3COC[C@@H]3O)c12 (stereo partly shown) [Example 9.28]
7 nM	COc1cc(N=S2(=O)CCC(O)CC2)cc2ncnc(Nc3ccc(F)cc3O[C@H]3COC[C@@H]3O)c12 (stereo partly shown) [Example 9.26]
86 nM	COc1cc(N=S(C)(=O)c2ccncc2)cc2ncnc(Nc3ccc(F)cc3O[C@H]3COC[C@H]3O)c12 (mixture of isomers) [Example 9.27]
3 nM	Cc1cc(N=S(C)(C)=O)cc2ncnc(Nc3ccc(F)cc3OC3CCC(O)OC3)c12 (stereo not shown) [Example 12.2]
26 nM	COc1cc(N=S2(=O)CCC(O)CC2)cc2ncnc(Nc3ccc(F)cc3O[C@H]3COC[C@H]3O)c12 (mixture of isomers) [Example 9.25]
18 nM	COc1cc(N=S(C)(=O)C2CC2)cc2ncnc(Nc3ccc(F)cc3O[C@H]3COC[C@@H]3O)c12 (stereo partly shown) [Example 9.22]
1 nM	COc1cc(N=S2(=O)CCC2)cc2ncnc(Nc3ccc(Cl)nc3O[C@H]3COC[C@@H]3O)c12 [Example 9.5]
15 nM	COc1cc(N=S(C)(=O)C2CCOCC2)cc2ncnc(Nc3ccc(F)cc3O[C@H]3COC[C@@H]3O)c12 (stereo partly shown) [Example 9.11]
7 nM	CO[C@H]1COC[C@H]1Oc1cc(F)ccc1Nc1ncnc2cc(N=S(C)(C)=O)cc(C)c12 [Example 14.7]
3 nM	Cc1cc(N=S2(=O)CCC2)cc2ncnc(Nc3ccc(F)cc3OC3CCC(O)OC3)c12 (stereo not shown) [Example 12.1]

target: MNK1a (Homo sapiens (Human), UniProt Q9BUB5); assay: MNK1 in vitro kinase assay (Assay 3), Z'-LYTE; type: biochemical; conditions: not given
Sequence (Q9BUB5 other isoform, or with tags, fused parts or gaps): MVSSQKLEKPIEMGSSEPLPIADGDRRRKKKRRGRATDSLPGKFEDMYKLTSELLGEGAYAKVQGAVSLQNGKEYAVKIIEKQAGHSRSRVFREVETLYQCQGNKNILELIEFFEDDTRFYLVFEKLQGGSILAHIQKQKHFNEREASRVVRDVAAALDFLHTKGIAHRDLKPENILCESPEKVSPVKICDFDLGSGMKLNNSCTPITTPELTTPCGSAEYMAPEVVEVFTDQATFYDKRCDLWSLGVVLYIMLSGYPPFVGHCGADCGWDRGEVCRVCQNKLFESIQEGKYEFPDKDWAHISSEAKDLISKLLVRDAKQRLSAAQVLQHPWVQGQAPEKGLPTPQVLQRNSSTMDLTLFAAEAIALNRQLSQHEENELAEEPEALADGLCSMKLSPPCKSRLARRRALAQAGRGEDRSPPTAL
Description: C. MNK1 In Vitro Kinase Assay (Assay 3)
MNK1 Data can be obtained from the MNK1 Z′-LYTE® assay. The MNK1 Z′-LYTE® screening protocol and assay conditions are also described on www.invitrogen.com.
The assay is described as follows:
The Z′-LYTE® biochemical assay employs a fluorescence-based, coupled-enzyme format and is based on the differential sensitivity of phosphorylated and non-phosphorylated peptides to proteolytic cleavage. The peptide substrate is labeled with two fluorophores—one at each end—that make up a FRET pair.
In the primary reaction, the kinase transfers the gamma-phosphate of ATP to a single tyrosine, serine or threonine residue in a synthetic FRET-peptide. In the secondary reaction, a site-specific protease recognizes and cleaves non-phosphorylated FRET-peptides. Phosphorylation of FRET-peptides suppresses cleavage by the Development Reagent. Cleavage disrupts FRET between the donor (i.e., coumarin) and acceptor (i.e., fluorescein) fluorophores on the FRET-peptide, whereas uncleaved, phosphorylated FRET-peptides maintain FRET. A ratiometric method, which calculates the ratio (the Emission Ratio) of donor emission to acceptor emission after excitation of the donor fluorophore at 400 nm, is used to quantitate reaction progress, as shown in the equation below.
The 2×MKNK1 (MNK1) mixture is prepared in 50 mM HEPES pH 7.5, 0.01% BRIJ-35, 10 mM MgCl2, 4 mM MnCl2, 1 mM EGTA, 2 mM DTT.
The Test Compounds are screened in 1% DMSO (final) in the well.
All Peptide/Kinase Mixtures are diluted to a 2× working concentration in the MNK1 Kinase Buffer.
All ATP Solutions are diluted to a 4× working concentration in Kinase Buffer (50 mM HEPES pH 7.5, 0.01% BRIJ-35, 10 mM MgCl2, 1 mM EGTA).
Development Reagent Solution:
The Development Reagent is diluted in Development Buffer
1. 2.5 μL—4× Test Compound
2. 5 μL—2× Peptide/Kinase Mixture
5. 60-minute Kinase Reaction incubation at room temperature
6. 5 μL—Development Reagent Solution
8. 60-minute Development Reaction incubation at room temperature
9. Read on fluorescence plate reader and analyze the data
Control C0%=Average Coumarin emission signal of the 0% Phos. Control F100%=Average Fluorescein emission signal of the 100% Phos. Control F0%=Average Fluorescein emission signal of the 0% Phos. Control Graphing Software
SelectScreen® Kinase Profiling Service uses XLfit from IDBS. […] The activity of MNK proteins can be assayed also by other in vitro kinase assay formats. […] In general, MNK kinase assays can be performed such that a MNK substrate such as a protein or a peptide, which may or may not include modifications as further described below, or others are phosphorylated by MNK proteins having enzymatic activity in vitro. The activity of a candidate agent can then be determined via its ability to decrease the enzymatic activity of the MNK protein. The kinase activity may be detected by change of the chemical, physical or immunological properties of the substrate due to phosphorylation.

Structure (SMILES)	IC50
Cc1cc(N=S(C)(C)=O)cc2ncnc(Nc3ccc(F)cc3O[C@H]3COC[C@@H]3O)c12 [Example 2.45]	92 nM

same assay, conditions: compound concentration of 1 μM

Structure (SMILES)	MNK1 % INH
Cc1cc(N=S(C)(C)=O)cc2ncnc(Nc3ccc(F)cc3O[C@H]3COC[C@@H]3O)c12 [Example 2.45]	92%

same assay, conditions: compound concentration of 1 μM, read-out: MNK1 % INH

Structure (SMILES)	inhibition at 1 µM
Cc1cc(N=S2(=O)CCCC2)cc2ncnc(Nc3cccnc3O[C@H]3COC[C@@H]3O)c12 [Example 2.24]	99%
Cc1cc(N=S2(=O)CCC2)cc2ncnc(Nc3ccc(F)cc3O[C@@H]3COC[C@@H]3O)c12 (single isomer, unassigned) [Example 1.36]	98%
O=S1(=Nc2cc(F)c3c(Nc4cccnc4O[C@H]4COC[C@H]4O)ncnc3c2)CCC1 (racemic) [Example 2.33]	91%
Cc1cc(N=S(C)(=O)C2CC2)cc2ncnc(Nc3ccc(F)cc3O[C@@H]3COC[C@@H]3O)c12 (mixture of isomers) [Example 2.72]	98%
Cc1cc(N=S(C)(C)=O)cc2ncnc(Nc3ccc(F)cc3O[C@H]3COC[C@H]3O)c12 (racemic) [Example 2.7]	97%
Cc1cc(N=S2(=O)CCCC2)cc2ncnc(Nc3ccc(F)cc3O[C@H]3CNC[C@@H]3O)c12 [Example 3.6]	98%
Cc1cc(N=S2(=O)CCC2)cc2ncnc(Nc3ccc(F)cc3O[C@@H]3COC[C@H]3O)c12 [Example 2.47]	103%
O=S1(=Nc2cc(F)c3c(Nc4cccnc4O[C@H]4COC[C@H]4O)ncnc3c2)CCCC1 (racemic) [Example 2.30]	97%
Cc1cc(N=S2(=O)CCC2)cc2ncnc(Nc3cccnc3O[C@H]3COC[C@H]3O)c12 (racemic) [Example 2.32]	97%
CO[C@H]1COC[C@H]1Oc1ncccc1Nc1ncnc2cc(N=S(C)(C)=O)cc(C)c12 (racemic) [Example 2.1]	88%
Cc1cc(N=S2(=O)CCC2)cc2ncnc(Nc3ccc(F)cc3O[C@@H]3COC[C@@H]3O)c12 (racemic) [Example 2.67]	100%
O=S1(=Nc2cc(F)c3c(Nc4ccc(F)cc4O[C@H]4COC[C@@H]4O)ncnc3c2)CCCC1 [Example 2.66]	100%

Further lines, results first:

inhibition at 1 µM	Structure (SMILES)
103%	Cc1cc(N=S2(=O)CCCC2)cc2ncnc(Nc3cccnc3O[C@H]3COC[C@H]3O)c12 (single isomer, unassigned) [Example 14.4]
100%	Cc1cc(N=S2(=O)CCCC2)cc2ncnc(Nc3cccnc3O[C@@H]3COC[C@@H]3O)c12 (single isomer, unassigned) [Example 14.3]
